Reference: ChEMBL document CHEMBL4190379 (Bioorg Med Chem Lett, 2018)

Tests used:
[1] = Permeability of the compound by PAMPA method; format: ADME; conditions: read-out: permeability
[2] = biological target: T1, Bromodomain-containing protein 4 (Homo sapiens, UniProt O60885); experiment: Binding affinity to BRD4 in human H1299 cells stably expressing E2 and HPV16-LCR luciferase reporter incubated for 24 hrs by Bright-Glo luciferase reporter gene assay based BRD4 engagement assay; format: cell-based
[3] = system: MX1; experiment: Antiproliferative activity against human MX1 cells incubated for 72 hrs by cell-titer Glo assay; format: functional, cell-based; conditions: MX1, 72 h
[4] = Intrinsic unbound clearance in human liver microsomes; format: ADME, microsome
[5] = AUC in mouse at 10 mg/kg, po; format: ADME, organism-based; conditions: in vivo
[6] = biological target: T1, Bromodomain-containing protein 4; experiment: Binding affinity to His-tagged BRD4 bromodomain 1 to 2 (K57 to K550 amino acids) (unknown origin) using Alexa647-labeled BET-inhibitor as fluorescent probe by bromodomain TR-FRET binding assay; format: single protein
[7] = Intrinsic unbound clearance in mouse liver microsomes; format: ADME, microsome
[8] = system: Mus musculus; experiment: Unbound clearance in mouse at 10 mg/kg, po; format: ADME, organism-based; conditions: in vivo
[9] = Oral bioavailability in mouse at 10 mg/kg; format: ADME, organism-based; conditions: in vivo

Compound | Papp [1] [×10⁻⁶ cm/s] | IC50 [2] [nM] | EC50 [3] [nM] | CL free [4] [mL/min/kg] | AUC [5] [µM·h] | Ki [6] [nM] | CL free [7] [mL/min/kg] | CL free [8] [mL/min/kg] | bioavailability [9] [%]
Cn1cc2c3c(c[nH]c(=O)c31)-c1cc(CS(C)(=O)=O)ccc1N(c1ccccn1)C2 | 5.9 | 2.3 | 5.5 | 65 | 1.2 | 2.9 | 140 | – | –
CCS(=O)(=O)Nc1ccc2c(c1)-c1c[nH]c(=O)c3c1c(cn3C)CN2c1ccc(F)cc1 | – | 4.3 | 5.6 | – | – | 4.8 | – | – | –
Cn1cc(-c2cc(S(C)(=O)=O)ccc2NCC2CC2)c2cc[nH]c(=O)c21 | – | 150 | 140 | – | – | 80 | – | – | –
Cn1cc2c3c(c[nH]c3c1=O)CN(c1ccc(F)cc1)c1ccc(CS(C)(=O)=O)cc1-2 | 6.6 | 1.5 | 0.72 | < 41.7 | 0.67 | 0.87 | 1400 | 5170 | 23
Cn1cc(-c2cc(CS(C)(=O)=O)ccc2NCC2CC2)c2cc[nH]c(=O)c21 | – | 200 | 140 | – | – | 220 | – | – | –
COC(=O)N1Cc2cn(C)c3c(=O)[nH]cc(c23)-c2cc(CS(C)(=O)=O)ccc21 | – | 48 | 78 | – | – | 17 | – | – | –
Cn1cc2c3c(c[nH]c3c1=O)CN(C(=O)C1CC1)c1ccc(CS(C)(=O)=O)cc1-2 | – | 21 | 7.8 | – | – | 7.1 | – | – | –
Cn1cc2c3c(c[nH]c(=O)c31)CN(CC1CC1)c1ccc(CS(C)(=O)=O)cc1-2 | 2.5 | 23 | 19 | < 45 | 0.64 | 12 | < 130 | 733 | 23
Cn1cc(-c2cc(S(C)(=O)=O)ccc2NCC2CC2)c2cc[nH]c2c1=O | – | – | 17 | – | – | – | – | – | –
Cn1cc2c3c(c[nH]c3c1=O)CN(CC1CC1)c1ccccc1-2 | – | 23 | 7.3 | – | – | 16 | – | – | –
Cn1cc2c3c(c[nH]c(=O)c31)-c1cc(CS(C)(=O)=O)ccc1N(c1ccc(F)cc1F)C2 | – | 6.5 | 4 | – | – | 2.7 | – | – | –
Cn1cc2c3c(c[nH]c3c1=O)CN(C1CCC(F)(F)CC1)c1ccc(CS(C)(=O)=O)cc1-2 | 7.3 | 3.7 | 1.4 | 67 | 0.13 | 4.7 | 267 | 4830 | 48
CCS(=O)(=O)Nc1ccc(Oc2ccc(F)cc2F)c(-c2cn(C)c(=O)c3[nH]ccc23)c1 [MIVEBRESIB] | – | 20 | – | – | – | – | – | – | –
Cn1cc2c3c(c[nH]c3c1=O)CN(CC1CC1)c1ccc(CS(C)(=O)=O)cc1-2 | 4.3 | 4.6 | 2 | 183 | 0.16 | 8.4 | 300 | 450 | 8.2
CCC(=O)N1Cc2c[nH]c3c(=O)n(C)cc(c23)-c2cc(CS(C)(=O)=O)ccc21 | – | 9 | 4.7 | – | – | 7.3 | – | – | –
Cn1cc(-c2ccccc2NCC2CC2)c2cc[nH]c(=O)c21 | – | 5000 | 3300 | – | – | 1500 | – | – | –
CCS(=O)(=O)Nc1ccc2c(c1)-c1c[nH]c(=O)c3c1c(cn3C)CN2c1ccccn1 | – | 18 | 4.9 | – | – | 2.7 | – | – | –
Cn1cc2c3c(c[nH]c3c1=O)CN(CC1CC1)c1ccc(S(C)(=O)=O)cc1-2 | – | 28 | 15 | – | – | 26 | – | – | –
Cn1cc2c3c(c[nH]c(=O)c31)CN(CC1CC1)c1ccccc1-2 | – | 95 | 57 | – | – | 43 | – | – | –
Cn1cc2c3c(c[nH]c(=O)c31)CN(CC1CC1)c1ccc(S(C)(=O)=O)cc1-2 | – | 190 | 140 | – | – | 180 | – | – | –
Cn1cc2c3c(c[nH]c(=O)c31)-c1cc(CS(C)(=O)=O)ccc1N(C(=O)C1CC1)C2 | – | 31 | 16 | – | – | 7.7 | – | – | –
CCS(=O)(=O)Nc1cnc2c(c1)-c1cn(C)c(=O)c3[nH]cc(c13)CN2c1ccc(F)cc1F | – | 4.1 | 7 | – | – | 4.1 | – | – | –
CCS(=O)(=O)Nc1cnc2c(c1)-c1c[nH]c(=O)c3c1c(cn3C)CN2c1ccc(F)cc1F | – | 32 | 18 | – | – | 4.4 | – | – | –
Cn1cc(-c2cc(CS(C)(=O)=O)ccc2NCC2CC2)c2cc[nH]c2c1=O | – | – | 43 | – | – | – | – | – | –
Cn1cc(-c2ccccc2NCC2CC2)c2cc[nH]c2c1=O | – | – | 1400 | – | – | – | – | – | –
